Experimental data as given in paper PMC12563681, “Cecytb-2, a Cytochrome b561 Homolog, Functions as an Ascorbate-Specific Transmembrane Ferric Reductase at Intestinal Lumens of Caenorhabditis elegans” (Biomolecules, 2025).

Legend:
Cecytb-2 (Cecytb-2-H6) [1] = target: T1, Cecytb-2 (Cecytb-2-H6) (Caenorhabditis elegans, UniProt O16271); experiment: stopped-flow heme reduction at […] nm; format: biochemical; set-up: gene CELE_F39G3.5; full length, 251 residues, 28,127 Da native; expressed in Pichia pastoris GS115, purified from microsomes in octyl glucoside; Ser2, Ser3 at N-terminus; two b hemes; settings: electron donor; pH 7.0, 1% octyl glucoside, about 25 °C
T1 sequence (O16271 1-251): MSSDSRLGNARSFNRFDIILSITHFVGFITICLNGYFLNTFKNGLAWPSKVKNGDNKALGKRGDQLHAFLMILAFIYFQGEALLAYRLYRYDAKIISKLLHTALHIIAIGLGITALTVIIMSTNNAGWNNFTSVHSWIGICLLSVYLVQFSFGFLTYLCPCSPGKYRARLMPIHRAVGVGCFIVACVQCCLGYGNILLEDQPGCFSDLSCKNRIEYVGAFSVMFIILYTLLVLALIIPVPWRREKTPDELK

Cecytb-2 (Cecytb-2-H6) [2] = target: T1, Cecytb-2 (Cecytb-2-H6); experiment: pulse radiolysis, heme oxidation at […] nm; set-up: gene CELE_F39G3.5; settings: electron acceptor; 10 mM AsA present, pH 7.0, 1% octyl glucoside

Row | SMILES | stopped-flow heme reduction at 426 nm (Cecytb-2 (Cecytb-2-H6) [1]) | pulse radiolysis, heme oxidation at 435 nm (Cecytb-2 (Cecytb-2-H6) [2])
1 | O=C1O[C@H]([C@@H](O)CO)C(O)=C1O [AsA] | second-order rate constant (k1) for the heme reduction with AsA was estimated | –
2 | [O]C1=C(O)[C@@H]([C@@H](O)CO)OC1=O [MDA radical] | – | heme oxidation of Cecytb-2-H6 by the generated MDA radical
